Results from patent publication US10500261B2 (priority 2014, dated 2019).
Entries after “also recorded” stand apart in the source; their conditions may differ.

Key:
[1] = system: HS23/36 CPS conjugate antisera; type: binding, rabbit
[2] = system: HS1 CPS conjugate antisera; type: binding, mouse
[3] = system: HS3 CPS conjugate antisera; type: binding, mouse
[4] = system: HS4 CPS conjugate antisera; type: binding, rabbit

SMILES | recognition by HS23/36 CPS-CRM197 conjugate antiserum [1] | recognition by HS1 CPS-CRM197 conjugate antiserum [2] | recognition by HS3 CPS-CRM197 conjugate antiserum [3] | recognition by HS4 CPS-CRM197 conjugate antiserum [4]
COc1ccc(O[C@H]2O[C@H](COP(N)(=O)OC)[C@H](O)[C@H](O)[C@H]2O)cc1 (stereo partly drawn) [MeOPN→6-α-D-Galp-(1→OMP, 4-Methoxyphenyl 6-O-methyl-phosphoramidate-α-D-galactopyranoside] | recognized; also recorded: strongly recognized; also recorded: detected | reacted to MeOPN-6-Gal, although to a somewhat lesser extent; also recorded: weaker intensity | did not react | elicited a response equivalent to anti-HS23/36 CRM197 conjugate; also recorded: strongly recognized
COc1ccc(O[C@H]2O[C@H](CO)[C@H](O)[C@H](O)[C@H]2O)cc1 [α-D-Gal-(1-OMP, 4-methoxyphenyl-α-D-galactopyranoside, reference compound] | No reaction was observed | – | – | –
